Structures can show the parent of a compound that is named as a salt.

In this assay the target is T1, CETP (Homo sapiens, UniProt P11597).
T1 construct: The donor lipoprotein obtained above was added to plasma of healthy subject; from tissue; host or cells: whole plasma of healthy subject
T1 sequence (P11597 18-493): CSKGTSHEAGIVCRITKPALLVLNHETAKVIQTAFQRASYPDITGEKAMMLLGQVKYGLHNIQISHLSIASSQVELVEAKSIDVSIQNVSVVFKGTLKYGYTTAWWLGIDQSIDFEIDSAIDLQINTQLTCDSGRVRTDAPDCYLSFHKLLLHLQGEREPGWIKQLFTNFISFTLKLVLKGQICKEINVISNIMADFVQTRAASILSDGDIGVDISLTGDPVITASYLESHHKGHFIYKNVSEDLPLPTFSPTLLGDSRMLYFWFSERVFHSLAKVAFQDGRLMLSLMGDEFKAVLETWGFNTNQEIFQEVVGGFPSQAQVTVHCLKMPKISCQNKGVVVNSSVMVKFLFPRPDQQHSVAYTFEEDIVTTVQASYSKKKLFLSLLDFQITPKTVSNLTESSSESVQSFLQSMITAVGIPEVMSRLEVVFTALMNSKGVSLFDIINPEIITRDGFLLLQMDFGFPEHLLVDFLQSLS
The assay is described as follows: Inhibitory effect in vitro on CETP activity in total plasma. Format: biochemical. The following applies: plasma of healthy subject with [3H]CE-HDL3, 37° C., 4 hr; average values. The procedure: Potassium bromide (KBr) was added to plasma (40 mL) of healthy subject and the mixture was adjusted to have a specific density d=1.125 g/mL. The mixture was subjected to density gradient centrifugation (227,000×g, 4° C., 17 hr) and a fraction showing a specific density of d>1.125 g/mL (HDL3 fraction) was harvested. The obtained fraction was dialyzed against PBS solution [10 mmol/L Na2HPO4; 10 mmol/L NaH2PO4; 0.15 mol/L NaCl; […] (pH 7.4)]. Then, tritium-labeled cholesterol (37 MBq) was dissolved in 95% ethanol, gradually added to the above-mentioned HDL3 fraction with stirring and incubated at 37° C. for 18 hr. [By this operation, tritium-labeled cholesterol was esterified by the action of lecithin acyl transferase (LCAT) present on the HDL3 surface and taken up into HDL3 as tritium-labeled cholesteryl ester ([^3H]CE)]. After incubation, KBr was added, the mixture was adjusted to have a specific density d=1.21 g/mL, subjected to density gradient centrifugation (227,000×g, 4° C., 17 hr) and a fraction of specific density […] was harvested. The obtained fraction was dialyzed against the aforementioned PBS solution to give HDL3 incorporating [^3H]CE ([^3H]CE-HDL3, specific density: 1.125<d<1.21, specific activity: 10,000 dpm/μL), which was used as a donor lipoprotein.
The donor lipoprotein obtained above was added to plasma of healthy subject to prepare a [^3H]CE-HDL3-containing plasma (1,000 dpm/μL). The compound was dissolved in dimethyl formamide. A solution of the compound or a solvent alone (2 μL) and the [^3H]CE-HDL3-containing plasma (100 μL) were added into a microtube, and this was incubated at 37° C. or 4° C. for 4 hr. After ice-cooling, TBS solution [100 μL, 20 mmol/L Tris; 0.15 mol/L NaCl (pH 7.4)] containing 1 mol/L magnesium chloride and 2% dextran sulfate was added to each microtube and the mixture was thoroughly stirred. After keeping at 4° C. for 30 min, the mixture was centrifuged (10,000×g, 4° C., 10 min), and the radioactivity in the obtained supernatant (HDL fraction) was measured with a scintillation counter. […] The concentration of the compound necessary for inhibiting the CETP activity by 50% was calculated as an IC50 value.

`CCN(CC1CCCC1)c1cc2c(cc1CN(Cc1cc(C(F)(F)F)cc(C(F)(F)F)c1)c1noc(C)n1)CCC2` [Example 46, N-[3,5-bis(trifluoromethyl)benzyl]-N-[6-(N′-cyclopentylmethyl-N′-ethylamino)indan-5-ylmethyl]-(5-methyl-[1,2,4]oxadiazol-3-yl)amine hydrochloride] registered an IC50 of 390 nM.
The result for `CCN(C[C@H]1CC[C@H](C(=O)O)CC1)c1cc2c(cc1CN(Cc1cc(C(F)(F)F)cc(C(F)(F)F)c1)c1nnn(C)n1)CCC2` [Example 51, trans-4-{[N-(6-{[N′-[3,5-bis(trifluoromethyl)benzyl]-N′-(2-methyl-2H-tetrazol-5-yl)amino]methyl}indan-5-yl)-N-ethylamino]methyl}cyclohexanecarboxylic acid hydrochloride] reads 410 nM; that for `CCN(C[C@H]1CC[C@H](C(=O)O)CC1)c1cc2c(cc1CN(Cc1cc(C#N)cc(C(F)(F)F)c1)c1nnn(C)n1)CCC2` [Example 52, trans-4-{[N-(6-{[N′-(3-cyano-5-trifluoromethylbenzyl)-N′-(2-methyl-2H-tetrazol-5-yl)amino]methyl}indan-5-yl)-N-ethylamino]methyl}cyclohexanecarboxylic acid hydrochloride], 370 nM.
The result for `CCN(C[C@H]1CC[C@H](C(=O)O)CC1)c1cc2c(cc1CN(Cc1cc(C(F)(F)F)cc(C(F)(F)F)c1)c1cc(C)no1)CCC2` [Example 53, trans-4-{[N-(6-{[N′-[3,5-bis(trifluoromethyl)benzyl]-N′-(3-methylisoxazol-5-yl)amino]methyl}indan-5-yl)-N-ethylamino]methyl}cyclohexanecarboxylic acid hydrochloride] reads 700 nM; that for `CCN(CCCCC(=O)OC)c1cc2c(cc1CN(Cc1cc(C#N)cc(C(F)(F)F)c1)c1ccn(C)n1)CCC2` [Example 55, methyl 5-[N-(6-{[N′-(3-cyano-5-trifluoromethylbenzyl)-N′-(1-methyl-1H-pyrazol-3-yl)amino]methyl}indan-5-yl)-N-ethylamino]pentanoate hydrochloride], 770 nM.
The compound `CCN(CCCCC(=O)O)c1cc2c(cc1CN(Cc1cc(C(F)(F)F)cc(C(F)(F)F)c1)c1ncn(C)n1)CCC2` [Example 58, 5-[N-(6-{[N′-[3,5-bis(trifluoromethyl)benzyl]-N′-(1-methyl-1H-[1,2,4]triazol-3-yl)amino]methyl}indan-5-yl)-N-ethylamino]pentanoic acid hydrochloride] returned a half-inhibitory concentration (IC50) of 715 nM.
`CCN(C[C@H]1CC[C@H](C(=O)O)CC1)c1cc2c(cc1CN(Cc1cc(C(F)(F)F)cc(C(F)(F)F)c1)c1ncn(C)n1)CCC2` [Example 59, trans-4-{[N-(6-{[N′-[3,5-bis(trifluoromethyl)benzyl]-N′-(1-methyl-1H-[1,2,4]triazol-3-yl)amino]methyl}indan-5-yl)-N-ethylamino]methyl}cyclohexanecarboxylic acid hydrochloride] had an IC50 of 430 nM.
Compound `CCN(C[C@H]1CC[C@H](C(=O)O)CC1)c1cc2c(cc1CN(Cc1cc(C#N)cc(C(F)(F)F)c1)c1ncn(C)n1)CCC2` [Example 60, trans-4-{[N-(6-{[N′-(3-cyano-5-trifluoromethylbenzyl)-N′-(1-methyl-1H-[1,2,4]triazol-3-yl)amino]methyl}indan-5-yl)-N-ethylamino]methyl}cyclohexanecarboxylic acid] returned an IC50 of 780 nM.
To `CCN(CCCCC(=O)OC)c1cc2c(cc1CN(Cc1cc(C(F)(F)F)cc(C(F)(F)F)c1)c1ccn(C)n1)CCCC2` [Example 63, methyl 5-[N-(3-{[N′-[3,5-bis(trifluoromethyl)benzyl]-N′-(1-methyl-1H-pyrazol-3-yl)amino]methyl}-5,6,7,8-tetrahydronaphthalen-2-yl)-N-ethylamino]pentanoate hydrochloride] belongs 640 nM; to `CCN(CCCCC(=O)OC)c1cc2c(cc1CN(Cc1cc(C#N)cc(C(F)(F)F)c1)c1ccn(C)n1)CCCC2` [Example 64, methyl 5-[N-(3-{[N′-(3-cyano-5-trifluoromethylbenzyl)-N′-(1-methyl-1H-pyrazol-3-yl)amino]methyl}-5,6,7,8-tetrahydronaphthalen-2-yl)-N-ethylamino]pentanoate hydrochloride], 750 nM; to `CCN(CCCCC(=O)O)c1cc2c(cc1CN(Cc1cc(C(F)(F)F)cc(C(F)(F)F)c1)c1ccn(C)n1)CCCC2` [Example 65, 5-[N-(3-{[N′-[3,5-bis(trifluoromethyl)benzyl]-N′-(1-methyl-1H-pyrazol-3-yl)amino]methyl}-5,6,7,8-tetrahydronaphthalen-2-yl)-N-ethylamino]pentanoic acid hydrochloride], 290 nM.
The result for `CCN(CCCCC(=O)O)c1cc2c(cc1CN(Cc1cc(C#N)cc(C(F)(F)F)c1)c1ccn(C)n1)CCCC2` [Example 66, 5-[N-(3-{[N′-(3-cyano-5-trifluoromethylbenzyl)-N′-(1-methyl-1H-pyrazol-3-yl)amino]methyl}-5,6,7,8-tetrahydronaphthalen-2-yl)-N-ethylamino]pentanoic acid hydrochloride] reads 870 nM; that for `CCN(C[C@H]1CC[C@H](C(=O)O)CC1)c1cc2c(cc1CN(Cc1cc(C(F)(F)F)cc(C(F)(F)F)c1)c1nnn(C)n1)CCCC2` [Example 67, trans-4-{[N-(3-{[N′-[3,5-bis(trifluoromethyl)benzyl]-N′-(2-methyl-2H-tetrazol-5-yl)amino]methyl}-5,6,7,8-tetrahydronaphthalen-2-yl)-N-ethylamino]methyl}cyclohexanecarboxylic acid hydrochloride], 260 nM; that for `CCN(C[C@H]1CC[C@H](C(=O)O)CC1)c1cc2c(cc1CN(Cc1cc(C#N)cc(C(F)(F)F)c1)c1nnn(C)n1)CCCC2` [Example 68, trans-4-{[N-(3-{[N′-(3-cyano-5-trifluoromethylbenzyl)-N′-(2-methyl-2H-tetrazol-5-yl)amino]methyl}-5,6,7,8-tetrahydronaphthalen-2-yl)-N-ethylamino]methyl}cyclohexanecarboxylic acid hydrochloride], 280 nM.
To `CCN(C[C@H]1CC[C@H](C(=O)O)CC1)c1cc2c(cc1CN(Cc1cc(C(F)(F)F)cc(C(F)(F)F)c1)c1ncn(C)n1)CCCC2` [Example 69, trans-4-{[N-(3-{[N′-[3,5-bis(trifluoromethyl)benzyl]-N′-(1-methyl-1H-[1,2,4]triazol-3-yl)amino]methyl}-5,6,7,8-tetrahydronaphthalen-2-yl)-N-ethylamino]methyl}cyclohexanecarboxylic acid hydrochloride] belongs 340 nM; to `CCN(C[C@H]1CC[C@H](C(=O)O)CC1)c1cc2c(cc1CN(Cc1cc(C#N)cc(C(F)(F)F)c1)c1ncn(C)n1)CCCC2` [Example 70, trans-4-{[N-(3-{[N′-(3-cyano-5-trifluoromethylbenzyl)-N′-(1-methyl-1H-[1,2,4]triazol-3-yl)amino]methyl}-5,6,7,8-tetrahydronaphthalen-2-yl)-N-ethylamino]methyl}cyclohexanecarboxylic acid], 540 nM; to `CCN(C[C@H]1CC[C@H](C(=O)O)CC1)c1cc2c(cc1CN(Cc1cc(C(F)(F)F)cc(C(F)(F)F)c1)c1cc(C)no1)CCCC2` [Example 71, trans-4-{[N-(3-{[N′-[3,5-bis(trifluoromethyl)benzyl]-N′-(3-methylisoxazol-5-yl)amino]methyl}-5,6,7,8-tetrahydronaphthalen-2-yl)-N-ethylamino]methyl}cyclohexanecarboxylic acid hydrochloride], 440 nM.

Source of the values: patent US7807701B2, “Dibenzylamine compounds and pharmaceutical use thereof” (Japan Tobacco Inc., priority 2002, dated 2010).
